Test results: PubChem BioAssay (NCI)
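Method: 48-hour compound exposure of cells in 96-well plates, five concentrations, linear interpolation of endpoints. GI50 is the concentration that inhibits growth by half. TGI denotes the concentration required for complete inhibition of growth.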

Each compound was assayed on TK-10 renal (assay: growth of human tumour cells (NCI), 48 h).
With CNC=O.[O]=[Ge].[O]=[Ge].[O]=[Ge].[O]=[Ge][OH].[O]=[Ge][OH] the TGI was > 100 µM.
For N#CCCN(c1ccc(/C=C2\N=C(c3ccc(Cl)cc3)OC2=O)cc1)S(=O)(=O)c1ccccc1, the TGI was > 100 µM.
In the case of COc1ccc(C2CC(=O)c3c(OC)cc(OC)cc3O2)cc1 (centres undefined), the GI50 is reported as > 100 µM and the TGI is reported as > 100 µM.
In the case of COC(=O)C1=C(c2ccc3c(c2)OCO3)O[C@H](c2ccc3c(c2)OCO3)[C@H]1COC(C)=O, the TGI is reported as > 100 µM.
With CC(C)=[CH][Sb]([Br])([CH]=C(C)C)([CH]=C(C)C)[CH]=C(C)C the GI50 was 34.9 µM and the TGI was > 100 µM.
CCOC(=O)[C@H]1Nc2ccc(C)cc2C2c3ccccc3CC21 (some centres undefined) was tested, and the TGI was > 100 µM.
For COc1cc([N+](=O)[O-])ccc1NC(=O)C(F)(F)F, the TGI was > 100 µM.
For CSc1nc(NC2OC(COC(C)=O)C(OC(C)=O)C(OC(C)=O)C2OC(C)=O)c2c(OC(C)=O)c(C)c(=O)oc2n1 (centres undefined), the TGI was > 100 µM.
O=C(O)C1C(C(=O)O)C(C(=O)O)C1C(=O)O (centres undefined) was tested, and the TGI was > 100 µM.
For COc1ccc(C(=O)O)c(Cc2cccc3ccccc23)c1, the TGI was > 100 µM.
CC#CC(=O)Nc1ccccc1CC(c1c[nH]c2ccccc12)c1c[nH]c2ccccc12 gave a TGI of 92.3 µM.
In the case of CN1C(NC(=O)c2ccc(Cl)nc2)=NS(=O)(=O)c2cc(Cl)ccc21, the GI50 is reported as > 100 µM and the TGI is reported as > 100 µM.
For N#Cc1cnsc1, the TGI was > 100 µM.
With CCOC(=O)NC(=O)c1cn(CCCOC(=O)NCCCCCCNC(=O)OCCCn2c(=O)c(C(=O)NC(=O)OCC)cn(C)c2=O)c(=O)n(C)c1=O the TGI was > 100 µM.
Work on COc1ccc2cc(C(=O)/C=C/c3cccc(OC)c3OC)ccc2c1 yielded a GI50 of 25.3 µM and a TGI of 65.1 µM.
With CCCCn1c(-c2ccc(C(=O)O/N=C(\N)c3ccc(OC)cc3)cc2)nc(-c2ccccc2)c1-c1ccccc1 the GI50 was 1.76 µM and the TGI was 3.38 µM.
For CC(C)=CC(=O)N1CCN(C(=O)C=C(C)C)CC1, the TGI was > 100 µM.
For CCCCC/C=C/C/C=C/CCCCCCCC1=NC(C)(C)CN1C(C)C, the GI50 was 1.67 µM and the TGI was 3.04 µM.
C[C@]12CC[C@@H]3c4ccc(O)cc4CC[C@H]3[C@@H]1CC[C@@H]2NS(=O)(=O)c1ccc(C(F)(F)F)cc1 gave a GI50 of 3.28 µM and a TGI of 8.53 µM.
In the case of CCc1cccc(C)c1NC(C)=O, the TGI is reported as > 100 µM.
Work on O=C(CC(=O)N1N=C(c2ccccc2)C(N=Nc2ccc(Cl)cc2)C1=O)Nc1ccccc1Cl (centres undefined) yielded a TGI of 38.1 µM.

These compounds were tested on OVCAR-5 ovarian (assay: growth of human tumour cells (NCI), 48 h).
In the case of CC(C)(C)OC(=O)N(CCCN(CCn1c2c(c3ccccc3c1=O)C(=O)c1ccccc1-2)C(=O)OC(C)(C)C)CCn1c2c(c3ccccc3c1=O)C(=O)c1ccccc1-2, the GI50 is reported as > 50 µM and the TGI is reported as > 50 µM.
In the case of CCCCCCCCCCCCCCCCOP(=O)(O)Oc1ccc(/C=C\c2ccc(OP(=O)(O)OCCCCCCCCCCCCCCCC)cc2)cc1, the TGI is reported as > 100 µM.
With O=c1[nH]c(=O)n(C2CC(O)C(CS)O2)cc1F (centres undefined) the TGI was > 100 µM.
With CNC1C(=O)C(C)C(O)(C(CC(C)C(O)/C=C/C=C/CNC(=O)C(C)(C)C(O)\C(C)=C/C=C\C=C\Cc2cnc(C)o2)OC)C12C(=O)OC2COC (centres undefined) (tested in a mixture with another compound) the TGI was > 70.2 µM.
For CCN(CC)C(=O)C/C(C)=N/NC(=O)c1ccncc1, the TGI was > 100 µM.
Cc1c2c(nn1-c1ccc(S(=O)(=O)/N=C3\SCC(=O)N3C(=O)c3ccccc3)cc1)-c1ccccc1CC2 was tested, and the GI50 was 49.9 µM and the TGI was > 100 µM.
In the case of CN(C)C(=S)/N=c1\ss/c(=N\C(=S)N(C)C)n1-c1ccc2c(c1)OCO2, the TGI is reported as > 100 µM.
For COC(=O)C(=O)C(C(=O)C(=O)Nc1ccc(C)cc1C)c1nc2ccccc2[nH]c1=O (centres undefined), the TGI was > 100 µM.
In the case of O=C(O)C(Sc1ccc(Cl)cc1)Sc1ccc(Cl)cc1, the TGI is reported as > 100 µM.
With CC[C@H](C)[C@H](NC(=O)[C@H]1CCCCN1C)C(=O)N(C)[C@H](CCc1nc(C(=O)N[C@@H](Cc2ccccc2)C[C@H](C)C(=O)OC)cs1)C(C)C the GI50 was 1.12 µM and the TGI was > 25 µM.
In the case of Nc1c(-c2ccc(Br)cc2)[n+]([O-])c2ccccc2[n+]1[O-], the TGI is reported as > 100 µM.
In the case of CNC=O.[O]=[Ge].[O]=[Ge].[O]=[Ge].[O]=[Ge][OH].[O]=[Ge][OH], the TGI is reported as > 100 µM.
For N#CCCN(c1ccc(/C=C2\N=C(c3ccc(Cl)cc3)OC2=O)cc1)S(=O)(=O)c1ccccc1, the TGI was > 100 µM.
For COc1ccc(C2CC(=O)c3c(OC)cc(OC)cc3O2)cc1 (centres undefined), the GI50 was > 100 µM and the TGI was > 100 µM.
With COC(=O)C1=C(c2ccc3c(c2)OCO3)O[C@H](c2ccc3c(c2)OCO3)[C@H]1COC(C)=O the TGI was > 100 µM.
With CCOC(=O)[C@H]1Nc2ccc(C)cc2C2c3ccccc3CC21 (some centres undefined) the TGI was > 100 µM.
With COc1cc([N+](=O)[O-])ccc1NC(=O)C(F)(F)F the TGI was > 100 µM.
For COc1cc(-c2c(C#N)c(N)n3c(nc4ccccc43)c2C#N)cc(Br)c1OC, the GI50 was > 100 µM and the TGI was > 100 µM.
N#CCCN(CCC#N)c1ccc(/C=C2\N=C(CN3C(=O)c4ccccc4C3=O)OC2=O)cc1 was tested, and the TGI was > 100 µM.
In the case of CSc1nc(NC2OC(COC(C)=O)C(OC(C)=O)C(OC(C)=O)C2OC(C)=O)c2c(OC(C)=O)c(C)c(=O)oc2n1 (centres undefined), the TGI is reported as > 100 µM.
In the case of O=C(O)C1C(C(=O)O)C(C(=O)O)C1C(=O)O (centres undefined), the TGI is reported as > 100 µM.
With COc1ccc(C(=O)O)c(Cc2cccc3ccccc23)c1 the TGI was > 100 µM.
C[C@]12CC[C@@H]3c4ccc(Oc5nc(N6CC6)nc(N6CC6)n5)cc4CC[C@H]3[C@@H]1CCC2=O was tested, and the GI50 was 12.1 µM and the TGI was 30.2 µM.
With N#Cc1cnsc1 the TGI was > 100 µM.
For CCOC(=O)NC(=O)c1cn(CCCOC(=O)NCCCCCCNC(=O)OCCCn2c(=O)c(C(=O)NC(=O)OCC)cn(C)c2=O)c(=O)n(C)c1=O, the TGI was > 100 µM.
In the case of COc1ccc2cc(C(=O)/C=C/c3cccc(OC)c3OC)ccc2c1, the GI50 is reported as 20.2 µM and the TGI is reported as 40.7 µM.
In the case of CCCCn1c(-c2ccc(C(=O)O/N=C(\N)c3ccc(OC)cc3)cc2)nc(-c2ccccc2)c1-c1ccccc1, the GI50 is reported as 2.35 µM and the TGI is reported as > 100 µM.
With CC(C)=CC(=O)N1CCN(C(=O)C=C(C)C)CC1 the TGI was > 100 µM.
With CCCCC/C=C/C/C=C/CCCCCCCC1=NC(C)(C)CN1C(C)C the GI50 was 1.87 µM and the TGI was 4.1 µM.
For C[C@]12CC[C@@H]3c4ccc(O)cc4CC[C@H]3[C@@H]1CC[C@@H]2NS(=O)(=O)c1ccc(C(F)(F)F)cc1, the GI50 was 1.7 µM and the TGI was 3.26 µM.
In the case of CCc1cccc(C)c1NC(C)=O, the TGI is reported as > 100 µM.
O=C(CC(=O)N1N=C(c2ccccc2)C(N=Nc2ccc(Cl)cc2)C1=O)Nc1ccccc1Cl (centres undefined) was tested, and the TGI was > 100 µM.

These compounds were tested on MALME-3M melanoma (assay: growth of human tumour cells (NCI), 48 h).
With CC(C)(C)OC(=O)N(CCCN(CCn1c2c(c3ccccc3c1=O)C(=O)c1ccccc1-2)C(=O)OC(C)(C)C)CCn1c2c(c3ccccc3c1=O)C(=O)c1ccccc1-2 the GI50 was > 50 µM and the TGI was > 50 µM.
In the case of CCCCCCCCCCCCCCCCOP(=O)(O)Oc1ccc(/C=C\c2ccc(OP(=O)(O)OCCCCCCCCCCCCCCCC)cc2)cc1, the TGI is reported as > 100 µM.
In the case of O=c1[nH]c(=O)n(C2CC(O)C(CS)O2)cc1F (centres undefined), the TGI is reported as > 100 µM.
For CNC1C(=O)C(C)C(O)(C(CC(C)C(O)/C=C/C=C/CNC(=O)C(C)(C)C(O)\C(C)=C/C=C\C=C\Cc2cnc(C)o2)OC)C12C(=O)OC2COC (centres undefined) (tested in a mixture with another compound), the TGI was > 87.9 µM.
With CCN(CC)C(=O)C/C(C)=N/NC(=O)c1ccncc1 the TGI was > 100 µM.
For CN(C)C(=S)/N=c1\ss/c(=N\C(=S)N(C)C)n1-c1ccc2c(c1)OCO2, the TGI was > 100 µM.
In the case of COC(=O)C(=O)C(C(=O)C(=O)Nc1ccc(C)cc1C)c1nc2ccccc2[nH]c1=O (centres undefined), the TGI is reported as > 100 µM.
For O=C(O)C(Sc1ccc(Cl)cc1)Sc1ccc(Cl)cc1, the TGI was > 100 µM.
In the case of CC[C@H](C)[C@H](NC(=O)[C@H]1CCCCN1C)C(=O)N(C)[C@H](CCc1nc(C(=O)N[C@@H](Cc2ccccc2)C[C@H](C)C(=O)OC)cs1)C(C)C, the GI50 is reported as 3.71 µM and the TGI is reported as > 25 µM.
In the case of Nc1c(-c2ccc(Br)cc2)[n+]([O-])c2ccccc2[n+]1[O-], the TGI is reported as > 100 µM.
In the case of C#CC[C@]12CC(=O)CC[C@H]1CC(=O)C2, the TGI is reported as > 100 µM.
For CNC=O.[O]=[Ge].[O]=[Ge].[O]=[Ge].[O]=[Ge][OH].[O]=[Ge][OH], the TGI was > 100 µM.
In the case of COc1ccc(C2CC(=O)c3c(OC)cc(OC)cc3O2)cc1 (centres undefined), the GI50 is reported as > 100 µM and the TGI is reported as > 100 µM.
COC(=O)C1=C(c2ccc3c(c2)OCO3)O[C@H](c2ccc3c(c2)OCO3)[C@H]1COC(C)=O was tested, and the TGI was > 100 µM.
In the case of CC(C)=[CH][Sb]([Br])([CH]=C(C)C)([CH]=C(C)C)[CH]=C(C)C, the GI50 is reported as 5.28 µM and the TGI is reported as > 100 µM.
CCOC(=O)[C@H]1Nc2ccc(C)cc2C2c3ccccc3CC21 (some centres undefined) was tested, and the TGI was > 100 µM.
With N#CCCN(CCC#N)c1ccc(/C=C2\N=C(CN3C(=O)c4ccccc4C3=O)OC2=O)cc1 the TGI was > 100 µM.
CSc1nc(NC2OC(COC(C)=O)C(OC(C)=O)C(OC(C)=O)C2OC(C)=O)c2c(OC(C)=O)c(C)c(=O)oc2n1 (centres undefined) was tested, and the TGI was > 100 µM.
In the case of O=C(O)C1C(C(=O)O)C(C(=O)O)C1C(=O)O (centres undefined), the TGI is reported as > 100 µM.
In the case of COc1ccc(C(=O)O)c(Cc2cccc3ccccc23)c1, the TGI is reported as > 100 µM.
Work on CC#CC(=O)Nc1ccccc1CC(c1c[nH]c2ccccc12)c1c[nH]c2ccccc12 yielded a TGI of 32.3 µM.
CN1C(NC(=O)c2ccc(Cl)nc2)=NS(=O)(=O)c2cc(Cl)ccc21 was tested, and the GI50 was > 100 µM and the TGI was > 100 µM.
N#Cc1cnsc1 was tested, and the TGI was > 100 µM.
CCOC(=O)NC(=O)c1cn(CCCOC(=O)NCCCCCCNC(=O)OCCCn2c(=O)c(C(=O)NC(=O)OCC)cn(C)c2=O)c(=O)n(C)c1=O was tested, and the TGI was > 100 µM.
COc1ccc2cc(C(=O)/C=C/c3cccc(OC)c3OC)ccc2c1 was tested, and the GI50 was 10.4 µM and the TGI was 29.4 µM.
C[C@]12CC[C@@H]3c4ccc(O)cc4CC[C@H]3[C@@H]1CC[C@@H]2NS(=O)(=O)c1ccc(C(F)(F)F)cc1 was tested, and the GI50 was 2.03 µM and the TGI was 4.37 µM.
CCc1cccc(C)c1NC(C)=O was tested, and the TGI was > 100 µM.
